pIC50: −log10 of the molar value. Active and inactive are the calls of the source. The calls are words filed in the database; no cut-off is given here.
Tests used:
[1] = biological target: T1, Amyloid-beta precursor protein (Homo sapiens, UniProt P05067); experiment: Displacement of congo red from amyloid-beta40 (unknown origin) assessed as reduction of congo red-amyloid beta40 complex level; design: scale not given: the % may be the effect or the level left
[2] = biological target: T1, Amyloid-beta precursor protein; experiment: Inhibition of amyloid-beta40 (unknown origin) aggregation at 250 uM by congo red spectral-shift assay
[3] = biological target: T1, Amyloid-beta precursor protein; experiment: Inhibition of amyloid-beta40 (unknown origin) aggregation by congo red spectral-shift assay

T1 sequence (P05067 whole entry): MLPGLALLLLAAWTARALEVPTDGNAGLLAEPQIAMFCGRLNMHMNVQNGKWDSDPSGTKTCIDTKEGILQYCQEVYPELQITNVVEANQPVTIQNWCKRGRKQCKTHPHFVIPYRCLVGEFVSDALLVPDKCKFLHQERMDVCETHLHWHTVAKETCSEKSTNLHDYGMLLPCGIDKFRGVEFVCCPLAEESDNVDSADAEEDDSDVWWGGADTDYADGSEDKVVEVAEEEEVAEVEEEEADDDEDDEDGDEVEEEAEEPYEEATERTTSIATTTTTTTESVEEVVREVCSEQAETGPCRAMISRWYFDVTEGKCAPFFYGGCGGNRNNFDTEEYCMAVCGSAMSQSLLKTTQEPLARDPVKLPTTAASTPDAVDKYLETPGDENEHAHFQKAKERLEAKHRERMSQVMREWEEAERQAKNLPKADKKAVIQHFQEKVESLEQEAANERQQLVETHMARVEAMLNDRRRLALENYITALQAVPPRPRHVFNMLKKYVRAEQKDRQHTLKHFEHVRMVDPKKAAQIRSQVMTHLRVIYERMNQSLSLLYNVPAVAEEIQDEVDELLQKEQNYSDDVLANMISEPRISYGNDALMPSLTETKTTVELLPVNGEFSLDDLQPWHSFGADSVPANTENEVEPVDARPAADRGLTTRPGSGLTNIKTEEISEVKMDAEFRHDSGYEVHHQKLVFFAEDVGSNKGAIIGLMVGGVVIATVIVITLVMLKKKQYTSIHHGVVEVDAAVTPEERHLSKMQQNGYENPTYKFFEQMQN

Activity [1] [%]	Activity [2]	pIC50 [3]	SMILES
2.6	inactive	4.17	Oc1ccc(-c2ccccc2-c2ccc(O)c(O)c2)cc1O
2.6	inactive	4.03	Oc1ccc(-c2cccc(-c3ccc(O)c(O)c3)c2)cc1O
–	Active	–	Oc1ccc(-c2ccc(-c3ccc(O)c(O)c3)cc2)cc1O
2.6	–	4.60	Oc1ccc(-c2ccc(O)c(O)c2)cc1O
